Test results reported in paper PMC6435570, “Zafirlukast Is a Dual Modulator of Human Soluble Epoxide Hydrolase and Peroxisome Proliferator-Activated Receptor γ” (Frontiers in Pharmacology, 2019).

What was measured:
[1] = test system: CysLT1R; conditions: Table 2 comparison column; no method, no reference given; cited from earlier work
[2] = design: method as in Brocks et al., 1996; Knorr et al., 2001; Karonen et al., 2012; conditions: ref Brocks et al., 1996; Knorr et al., 2001; Karonen et al., 2012; cited from earlier work
[3] = design: method as in Brocks et al., 1996; Knorr et al., 2001; Karonen et al., 2012; conditions: single oral dose of 20 mg; ref Brocks et al., 1996; Knorr et al., 2001; Karonen et al., 2012; cited from earlier work
[4] = molecular target: T1, recombinant human sEH (Homo sapiens, UniProt P34913); assay: Recombinant sEH activity (PHOME fluorescence assay); type: biochemical; conditions: PHOME 50 μM, 30 min preincubation at RT, read-out: sEH rec. IC50
T1 sequence (P34913 1-555): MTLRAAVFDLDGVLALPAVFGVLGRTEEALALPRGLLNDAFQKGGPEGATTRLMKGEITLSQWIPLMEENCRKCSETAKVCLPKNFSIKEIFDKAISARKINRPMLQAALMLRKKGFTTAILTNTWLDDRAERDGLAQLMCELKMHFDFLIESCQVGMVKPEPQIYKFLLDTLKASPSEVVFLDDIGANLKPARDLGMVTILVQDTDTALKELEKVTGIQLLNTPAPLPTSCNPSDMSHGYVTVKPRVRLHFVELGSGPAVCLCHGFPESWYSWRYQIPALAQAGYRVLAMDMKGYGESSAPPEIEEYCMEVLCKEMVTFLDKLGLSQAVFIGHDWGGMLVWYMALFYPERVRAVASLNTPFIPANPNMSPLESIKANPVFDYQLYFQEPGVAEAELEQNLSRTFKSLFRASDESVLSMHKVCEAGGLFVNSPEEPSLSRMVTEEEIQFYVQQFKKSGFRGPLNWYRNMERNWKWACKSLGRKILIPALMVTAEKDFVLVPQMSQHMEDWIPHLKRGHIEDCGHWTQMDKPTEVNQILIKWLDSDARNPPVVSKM
Experimental: For determination of IC50 values of recombinant human sEH a 96-well fluorescence-based assay system was used as described before ([Blöcher et al., 2016a]). In brief, non-fluorescent PHOME (3 phenylcyano-(6-methoxy-2-naphthalenyl)methyl ester 2-oxiraneacetic acid, Cayman Chemicals, Ann Arbor, MI, United States) was used as substrate, which is hydrolyzed by sEH to the fluorescent 6-methoxynaphthaldehyde ([Rau et al., 2006]). The formation of the fluorescent product was measured (λem = 330 nm, λex = 465 nm) by an Infinite F200 Pro plate reader (Tecan Group Ltd., Männedorf, Switzerland). For that purpose, 2 μg recombinant human sEH in 100 μl bis-Tris buffer (pH 7, 0.1 mg/mL BSA, 0.01% Triton-X 100) was applied per well. This protein solution was then incubated with different concentrations of the test compounds for 30 min at RT. After this, 10 μL of the substrate were added (final concentration 50 μM). The formation of 6-methoxynaphthaldehyde was monitored for 30 min. All concentrations were tested in triplicate wells.

IC50 [4]: 1970 ± 80 nM
SMILES: COc1cc(C(=O)NS(=O)(=O)c2ccccc2C)ccc1Cc1cn(C)c2ccc(NC(=O)OC3CCCC3)cc12 [Zafirlukast, zafirlukast]
IC50 [1]: 5 nM
Plasma protein binding [2]: High
Peak serum level [3]: about 1 μM
